Data reported in patent publication US20250049948A1, “NOVEL IONIZABLE LIPIDS AND LIPID NANOPARTICLES AND METHODS OF USING THE SAME” (Sail Biomedicines, Inc., priority 2021, published 2025).
“And” between values parts separate entries of the source, which are not always exact repeats. Equal entries are not always repeated.

Key:
[1] = tested on: Balb/c mice; test: In-vivo bioluminescent imaging of LNP compositions (Example 3); conditions: for Bioluminescence, Liver / Bioluminescence, Lung / Bioluminescence, Pancreas / Bioluminescence, Spleen / Bioluminescence, Whole body: LNP with 5 μg Fluc+5 μg EPO mRNA intravenously, 4-6 hours post-dose, two values per compound; for Bioluminescence, Whole body: FIG. 1: average radiance (p/s/cm2/sr); for Organ selectivity of delivery: bioluminescent imaging in mice, Example 3
Source text: C12-200 is commercially available ionizable lipid and has a chemical name of 1,1′-((2-(4-(2-((2-(bis(2-hydroxydodecyl)amino)ethyl)(2-hydroxydodecyl) amino)ethyl)piperazin-1-yl)ethyl)azanediyl)bis(dodecan-2-ol). A composition composed of ionizable lipid:structural lipid:sterol:EG-lipid (C12-200:DOPE:cholesterol:14:0 PEG2000 PE) at a molar ratio of 35:16:46.5:2.5, respectively. Lipids were solubilized in ethanol. These lipids were mixed at the above-indicated molar ratios and diluted in ethanol (organic phase) to 5.5 mM total lipid concentration. The mRNA solution (aqueous phase) was prepared with RNAse-free water and 100 mM citrate buffer pH 3 for a final concentration of 50 mM citrate buffer. The ionizable lipid to mRNA N:P ratio maintained at 15:1.
All other compositions (i.e., compositions of MC3 (a commercially available ionizable lipid having a chemical name of (6Z,9Z,28Z,31Z)-heptatriacont-6,9,28,31-tetraene-19-yl 4-(dimethylamino)butanoate, and compositions of novel ionizable lipids 7669, 7671, 7668, […], 7650) were composed of ionizable lipid:structural lipid:sterol:PEG-lipid (SDA lipid #:DSPC:cholesterol:14:0 PEG2000 PE) at a molar ratio of 50:38.5:10:1.5, respectively. Lipids were solubilized in ethanol. Compositions were then handled as above, except the formulations were maintained at ionizable lipid to mRNA N:P ratio of 6:1. The lipid mix and mRNA solution were mixed at a 1:3 ratio by volume, respectively, on a NanoAssemblr Ignite (Precision Nanosystems) at a total flow rate of 9 mL/min. Resulting compositions were then loaded into Slide-A-Lyzer G2 dialysis cassettes (10 k MWCO) and dialyzed in 200 times sample volume of 1×PBS for 4 hrs at room temp with gentle stirring. The PBS was refreshed, and the compositions were further dialyzed for at least 14 hrs at 4° C. with gentle stirring. The dialyzed compositions were then collected and concentrated by centrifugation at 2000×g using Amicon Ultra centrifugation filters (100 k MWCO). Concentrated particles were characterized for size, polydispersity, and particle concentration using Zetasizer Ultra (Malvern Panalytical) and for mRNA encapsulation efficiency using Quant-iT RiboGreen RNA Assay Kit (ThermoFisher Scientific).
8-9 week old female Balb/c mice were utilized for bioluminescence-based ionizable lipid screening efforts. Mice were obtained from Jackson Laboratories (JAX Stock: 000651) and allowed to acclimate for one week prior to manipulations. Animals were placed under a heat lamp for a few minutes before introducing them to a restraining chamber. The tail was wiped with alcohol pads (Fisher Scientific) and 100 μL of a lipid nanoparticle composition described above containing 10 μg total mRNA (5 μg Fluc+5 μg EPO) was injected intravenously using a 29G insulin syringe (Covidien). Any resulting bleeding was stemmed using a sterile gauze pad (Fisher Scientific) and animals were placed back into their home cage. 4-6 hours post-dose, animals were injected with 200 μL of 15 mg/mL D-Luciferin (GoldBio) and placed in an isoflurane induction chamber set to deliver 2.5% isoflurane delivered at an oxygen flow rate of 1-2 liters per min. After 5 minutes of isoflurane exposure, mice were placed in set nose cones inside the IVIS Lumina LT imager (PerkinElmer). LivingImage software was utilized for imaging. Whole body bio-luminescence was captured at auto-exposure after which animals were removed from the IVIS and placed into a CO2 chamber for euthanasia. Cardiac puncture was performed on each animal after placing it in dorsal recumbency, and blood collection was performed using a 25G insulin syringe (BD). Blood was collected in Lithium-Heparin coated tubes (Fisher Scientific) and immediately placed on ice. Once all blood samples were collected, tubes were spun at 2000G for 10 minutes using a tabletop centrifuge and plasma was aliquoted into individual Eppendorf tubes (Fisher Scientific) and stored at −80 C for subsequent EPO quantification. […]

[2] = tested on: Balb/c mice; test: In-vivo bioluminescent imaging of LNP compositions (Example 6); conditions: mRNA dose 5 μg FLUC (CRE/FLUC 1:1 LNP); for Bioluminescence (IV) Liver / Bioluminescence (IV) Lung / Bioluminescence (IV) Spleen / Bioluminescence (IV) Whole Body: 4-6 hours post-dose; for Spleen: Liver Ratio: intravenous
[3] = LNP size and polydispersity, Zetasizer Ultra; type: physicochemical
Protocol: (§1) For each LNP composition, the lipid mix and mRNA solution were mixed at a 1:3 ratio by volume, respectively, on a NanoAssemblr Ignite (Precision Nanosystems) at a total flow rate of 9 mL/min. The resulting compositions were then loaded into Slide-A-Lyzer G2 dialysis cassettes (10 k MWCO) and dialyzed in 200 times sample volume of 1×PBS for 2 hours at room temperature with gentle stirring. The PBS was refreshed, and the compositions were further dialyzed for at least 14 hours at 4° C. with gentle stirring. The dialyzed compositions were then collected and concentrated by centrifugation at 3000×g using Amicon Ultra centrifugation filters (100 k MWCO). The concentrated particles were characterized for size, polydispersity, and particle concentration using Zetasizer Ultra (Malvern Panalytical) and for mRNA encapsulation efficiency using Quant-iT RiboGreen RNA Assay Kit (ThermoFisher Scientific).

[4] = mRNA encapsulation efficiency, Quant-iT RiboGreen RNA Assay; type: physicochemical
Protocol: as §1

| SMILES | Bioluminescence, Liver [1] | Bioluminescence, Lung [1] | Bioluminescence, Pancreas [1] | Bioluminescence, Spleen [1] | Bioluminescence, Whole body [1] | Organ selectivity of delivery [1] | also measured |
| --- | --- | --- | --- | --- | --- | --- | --- |
| CCCCCCC(CCCCCC)CCCOC(=O)CCCCCCCN(CCCCCCCC(=O)OCCCC(CCCCCC)CCCCCC)CCCCN(C)C [Compound 7650, 4-hexyldecyl 8-[4-(dimethylamino)butyl-[8-(4-hexyldecoxy)-8-oxo-octyl]amino]octanoate] | 56300 and 83100 | 150000 and 138000 | 127000 and 87200 | 82400 and 108000 | 12100 and 10900 | selectively targeted the pancreas and lung over the whole body, liver, or spleen |  |
| CCCCCCC(CCCCCC)CCCOC(=O)CCCCCN(CCCCCC(=O)OCCCC(CCCCCC)CCCCCC)CCCCN(C)C [Compound 2131, bis(4-hexyldecyl) 6,6′-((4-(dimethylamino)butyl)azanediyl) dihexanoate] |  |  |  |  |  |  | Bioluminescence (IV) Liver [2]: 1.3E + 05; Bioluminescence (IV) Lung [2]: 2.4E + 03; Bioluminescence (IV) Spleen [2]: 9.5E + 03; Bioluminescence (IV) Whole Body [2]: 1.2E + 04; Spleen: Liver Ratio [2]: 0.076; PDI ([3]; LNP with CRE/FLUC 1:1 mRNA): 0.13; Size (nm) ([3]; LNP with CRE/FLUC 1:1 mRNA): 71.2 nm; % EE ([4]; LNP with CRE/FLUC 1:1 mRNA): 97.1% |
| CCCCCCC(CCCCCC)CCCOC(=O)CCCCCN(CCCCCC(=O)OCCCC(CCCCCC)CCCCCC)C(=O)CCCN(C)C [Compound 2134, bis(4-hexyldecyl) 6,6′-((4-(dimethylamino)butanoyl)azanediyl) dihexanoate] |  |  |  |  |  |  | Bioluminescence (IV) Liver [2]: 7.5E + 04; Bioluminescence (IV) Lung [2]: 1.4E + 03; Bioluminescence (IV) Spleen [2]: 4.3E + 03; Bioluminescence (IV) Whole Body [2]: 5.4E + 03; Spleen: Liver Ratio [2]: 0.063; PDI ([3]; LNP with CRE/FLUC 1:1 mRNA): 0.11; Size (nm) ([3]; LNP with CRE/FLUC 1:1 mRNA): 92.9 nm; PDI ([3]; LNP with EGFP mRNA): 0.20; Size (nm) ([3]; LNP with EGFP mRNA): 107.1 nm; % EE ([4]; LNP with CRE/FLUC 1:1 mRNA): 98.3%; % EE ([4]; LNP with EGFP mRNA): 98.3% |
| CCCCCCC(CCCCCC)CCCOC(=O)CCCCCCCN(CCCCCCCC(=O)OCCCC(CCCCCC)CCCCCC)CCC(O)CN(C)C (centres unmarked) [Compound 7676, 4-hexyldecyl 8-[[4-(dimethylamino)-3-hydroxy-butyl]-[8-(4-hexyldecoxy)-8-oxo-octyl]amino]octanoate] | 183000 and 161000 | 262000 and 170000 | 177000 and 220000 | 255000 and 259000 | 50900 and 30400 | selectively targeted the pancreas and lung over the whole body, liver, or spleen |  |
| CCCCCCCCCCC(O)CN(CCN1CCN(CCN(CC(O)CCCCCCCCCC)CC(O)CCCCCCCCCC)CC1)CCN(CC(O)CCCCCCCCCC)CC(O)CCCCCCCCCC (centres unmarked) [Compound C12-200, 1,1′-((2-(4-(2-((2-(bis(2-hydroxydodecyl)amino)ethyl)(2-hydroxydodecyl)amino)ethyl)piperazin-1-yl)ethyl)azanediyl)bis(dodecan-2-ol), reference compound] | 92300000 and 69700000 |  | 236000 and 216000 | 1280000 and 1390000 |  |  |  |
| CCCCCCC(CCCCCC)CCCOC(=O)CCCCCCCN(CCCCCCCC(=O)OCCCC(CCCCCC)CCCCCC)CCOCCOCCN(C)C [Compound 7669, 4-hexyldecyl 8-[2-[2-[2-(dimethylamino)ethoxy]ethoxy]ethyl-[8-(4-hexyldecoxy)-8-oxo-octyl]amino]octanoate] | 92400 and 129000 | 73000 and 70100 | 106000 and 87800 | 112000 and 91700 | 5120 and 2920 | selectively targeted the pancreas and lung over the whole body, liver, or spleen |  |
| CCCCCC(CCCCC)CCCOC(=O)CCCCCCCN(CCO)CCCCCCCC(=O)OCCCC(CCCCC)CCCCC [Compound 2135, bis(4-pentylnonyl) 8,8′-((2-hydroxyethyl)azanediyl)dioctanoate] |  |  |  |  |  |  | PDI ([3]; LNP with EGFP mRNA): 0.04; Size (nm) ([3]; LNP with EGFP mRNA): 81.8 nm; % EE ([4]; LNP with EGFP mRNA): 96.2% |
| CCCCC/C=C\C/C=C\CCCCCCCCC(CCCCCCCC/C=C\C/C=C\CCCCC)OC(=O)CCCN(C)C [MC3, (6Z,9Z,28Z,31Z)-heptatriacont-6,9,28,31-tetraene-19-yl 4-(dimethylamino)butanoate, reference compound] | 22000000 and 20300000 | 300000 and 258000 | 192000 and 232000 | 1660000 and 2060000 |  |  |  |
| CCCCCCC(CCCCCC)CCCOC(=O)CCCCCCCN(CCCCCCCC(=O)OCCCC(CCCCCC)CCCCCC)C(=O)CCN1CCCC1 [Compound 7671, 4-hexyldecyl 8-[[8-(4-hexyldecoxy)-8-oxo-octyl]-(3-pyrrolidin-1-ylpropanoyl)amino]octanoate] | 296000 and 184000 | 215000 and 180000 | 141000 and 185000 | 422000 and 574000 | 780000 and 772000 | selectively targeted the pancreas and lung over the whole body, liver, or spleen |  |
| CCCCCC(CCCCC)CCCN(C)C(=O)CCCCCCCN(CCCCCCCC(=O)N(C)CCCC(CCCCC)CCCCC)C(=O)CCN1CCCC1 [Compound 2242, N-methyl-8-(N-(8-(methyl(4-pentylnonyl)amino)-8-oxooctyl)-3-(pyrrolidin-1-yl)propanamido)-N-(4-pentylnonyl)octanamide] |  |  |  |  |  |  | PDI ([3]; LNP with FLUC/EPO 1:1 mRNA): 0.079; Size (nm) ([3]; LNP with FLUC/EPO 1:1 mRNA): 154.2 nm; % EE ([4]; LNP with FLUC/EPO 1:1 mRNA): 89.5% |
| CCCCCCC(CCCCCC)CCCOC(=O)CCCCCCCN(CCCCCCCC(=O)OCCCC(CCCCCC)CCCCCC)C(=O)CCCN(C)C [Compound 7668, 4-hexyldecyl 8-[4-(dimethylamino)butanoyl-[8-(4-hexyldecoxy)-8-oxo-octyl]amino]octanoate] |  |  |  | 56400 and 60500 | 48500 and 26900 | selectively targeted the pancreas and lung over the whole body, liver, or spleen |  |
| CCCCCCC(CCCCCC)CCCOC(=O)CCCCCCCN(CCO)CCCCCCCC(=O)OCCCC(CCCCCC)CCCCCC [Compound 2136, bis(4-hexyldecyl) 8,8′-((2-hydroxyethyl)azanediyl)dioctanoate] |  |  |  |  |  |  | PDI ([3]; LNP with EGFP mRNA): 0.04; Size (nm) ([3]; LNP with EGFP mRNA): 77.5 nm; % EE ([4]; LNP with EGFP mRNA): 95.5% |
